Assay results: US4342772A, “β-Lactam compounds, antibacterial compositions thereof and method of use” (priority 1979, dated 1982)
“And” between values parts separate entries of the source, which are not always exact repeats. Identical values can stand only once. Counter-ions that a name gives are not always drawn. Like-named read-outs stand apart in the source and are kept apart here.

Experiments:
[1] = Absorption from the gastro-intestinal tract and in vivo hydrolysis; design: species or system animals and human volunteers; details: oral, in words
[2] = human, in vivo, po
Method: Serum concentrations and urinary excretion of ampicillin in fasting
following oral administration of
A. 125 mg of pivampicillin free base in tablets.
B. 170 mg of VD-1827^x hydrochloride (corresponding to 125 mg of
free base) in aqueous solution.
Serum concentrations (μg/ml) (% of dose)

β-lactamases = details: cited from earlier work
[3] = system: β-lactamase producing bacteria; details: cited from earlier work
[4] = system: gram-positive and gram-negative organisms; details: cited from earlier work
[5] = cited from earlier work
[6] = in words, medium not stated; cited from earlier work
[7] = Stability of crystalline form; type: physicochemical; details: crystalline free base; in words
[8] = Urinary excretion in 0 to 6 hours of penicillanic acid 1,1-dioxide in fasting volunteers following oral administration (Table II); details: oral 73 mg potassium penicillanate 1,1-dioxide, aqueous solution, individual subjects in order GK, MK, FJ, MM, LA, 360 min

| Structure (SMILES) | Inhibition of a wide range of β-lactamases (β-lactamases) | Synergy against β-lactamase producing bacteria [3] | Antibacterial activity against most gram-positive and gram-negative organisms [4] | other results |
| --- | --- | --- | --- | --- |
| CC1(C)S[C@@H]2[C@H](NC(=O)[C@H](N)c3ccccc3)C(=O)N2[C@H]1C(=O)OCOC(=O)[C@@H]1N2C(=O)C[C@H]2S(=O)(=O)C1(C)C [VD-1827 hydrochloride, 1,1-Dioxopenicillanoyloxymethyl 6-(D-α-amino-α-phenylacetamido)penicillanate hydrochloride] |  |  |  | Absorption from the gastro-intestinal tract ([1]; HCl, hydrochloride): efficient oral absorption; Urinary recovery of ampicillin compared with pivampicillin [2]: comparable to that following administration of pivampicillin |
| CC1(C)[C@H](C(=O)O)N2C(=O)[C@@H](NC(=O)c3nc4ccccc4nc3C(=O)O)[C@H]2S1(=O)=O [quinacillin sulphone] | powerful inhibitors | act synergistically | only weak antibacterial activity |  |
| CC1(C)S[C@@H]2[C@H](NC(=O)C(C(=O)O)c3ccccc3)C(=O)N2[C@H]1C(=O)O (some centres unmarked) [carbenicillin] |  |  |  | Absorption from the gastro-intestinal tract (general statement) ([5]; in vivo, po): incompletely absorbed |
| CC(C)(C)C(=O)OCOC(=O)[C@@H]1N2C(=O)C[C@H]2S(=O)(=O)C1(C)C [pivaloyloxymethyl ester of the β-lactamase inhibitor penicillanic acid 1,1-dioxide] |  |  |  | Solubility (general statement) [6]: sparingly soluble; Absorption from the gastro-intestinal tract (general statement) ([5]; oral, in words, no data shown): absorbed much more slowly |
| CC1(C)S[C@@H]2[C@H](NC(=O)[C@H](N)c3ccccc3)C(=O)N2[C@H]1C(=O)OCOC(=O)[C@@H]1N2C(=O)C[C@H]2S(=O)(=O)C1(C)C [VD-1827, free base, 1,1-Dioxopenicillanoyloxymethyl 6-(D-α-amino-α-phenylacetamido)penicillanate] |  |  |  | Absorption from the gastro-intestinal tract ([1]; listed as free base VD 1827): readily absorbable; Stability [7]: stable |
| CC1(C)[C@H](C(=O)[O-])N2C(=O)C[C@H]2S1(=O)=O.[K+] [potassium penicillanate 1,1-dioxide] |  |  |  | Urinary excretion of penicillanic acid 1,1-dioxide [8]: 2.5 % of dose and 4.0 % of dose and 9.5 % of dose and 5.5 % of dose and 4.5 % of dose |
| CC1(C)[C@H](C(=O)O)N2C(=O)[C@H](Cl)[C@H]2S1(=O)=O [6α-chloropenicillanic acid 1,1-dioxide] | powerful inhibitors | act synergistically | only weak antibacterial activity |  |
| CC(C)(C)C(=O)OCOC(=O)[C@@H]1N2C(=O)[C@@H](NC(=O)[C@H](N)c3ccccc3)[C@H]2SC1(C)C [pivampicillin] |  |  |  | Absorption from the gastro-intestinal tract (general statement) ([5]; oral, in words, no data shown): absorbed very rapidly |
| CC1(C)[C@H](C(=O)O)N2C(=O)C[C@H]2S1(=O)=O [penicillanic acid 1,1-dioxide] | powerful inhibitors | act synergistically | only weak antibacterial activity | Absorption from the gastro-intestinal tract [1]: absorbed poorly or irregularly |
| CC1(C)S[C@@H]2C(NC(=O)[C@H](N)c3ccccc3)C(=O)N2[C@H]1C(=O)O (stereo partly drawn) [ampicillin, 6-(D-α-amino-α-phenylacetamido)penicillanic acid] |  |  |  | Absorption from the gastro-intestinal tract (general statement) ([5]; oral, in words, no data shown): incompletely absorbed |
| COc1cccc(OC)c1C(=O)N[C@@H]1C(=O)N2[C@@H](C(=O)O)C(C)(C)S(=O)(=O)[C@H]12 [methicillin sulphone, 1,1-dioxo-6β-(2,6-dimethoxybenzamido)penicillanic acid] | powerful inhibitors | act synergistically | only weak antibacterial activity |  |
